Experiment [1] deals with TnmH (Streptomyces sp. CB03234). Description: SEC. (In general: Size exclusion chromatography separates by hydrodynamic size, large species first.)
In experiment [2] the target is T1, TnmH (Streptomyces sp. CB03234, UniProt A0A125SA05). The following applies: saturating SAM (1 mM).
Experiment [3] has as its target T1, TnmH. Description: biochemical.

Like-named read-outs stand apart in the source and are kept apart here.

For orientation: stoichiometry N means a count of units in the complex or per binding partner. As for TnmH (enzyme), the stoichiometry N in experiment [1] worked out at 2. As a reminder, the Km is the concentration of substrate that gives half-maximal velocity. In the case of TNM F [compound 10], the Michaelis constant (Km) at TnmH [2] (10 varied 7.8 to 500 μM, C-7 hydroxyl methylation to 12) worked out at 11.7 ± 1.2 µM.

For the molecule `C[S+](CC[C@H](N)C(=O)O)C[C@H]1O[C@@H](n2cnc3c(N)ncnc32)[C@H](O)[C@@H]1O` (stereo partly shown) [SAM], the Michaelis constant (Km) on TnmH [3] came to 62 ± 4.8 µM. Take `COC(=O)C(O)C(C)(O)[C@@]12OC13c1cc(O)c4c(c1N[C@H]2C#C/C=C\C#C[C@H]3O)C(=O)c1c(ccc(O)c1O)C4=O` (stereo partly shown) [compound 11, TNM C]: on TnmH [2] (11 varied 7.8 to 500 μM, C-7 hydroxyl methylation to 13), the Michaelis-Menten constant (Km) amounted to 31.1 ± 4.1 µM.

(Values after article PMC7461649 (Journal of medicinal chemistry, 2020).)
